In EP0797567B1, “NOVEL AMINO ACID DERIVATIVES WITH IMPROVED MULTI-DRUG RESISTANCE ACTIVITY” (Vertex Pharmaceuticals Incorporated, priority 1994, dated 1996):
pIC50: −log10 of the molar value.

Experiments:
HL60/ADR cells = assay: Inhibition of MRP-mediated MDR: doxorubicin with or without compound, XTT viability; type: cell-based; conditions: Homo sapiens, 72 h, doxorubicin alone, no MDR inhibitor, control run of the compound in the same table row, 3 days, read-out: IC50 Dox alone
Description: We plated HL60/ADR cells in 96 well microtiter plates (4 x 10^4 cells/well). […] After culturing the cells for 3 days, their viability was quantitated using the XTT dye method to assess mitochondrial function. […] IC50 values are expressed in nM. In all assays the intrinsic antiproliferative or cytotoxic activity of the MDR inhibitors was also determined for HL60/ADR cells.

L1210VMDRC.06 = assay: MDR sensitization assay: doxorubicin antiproliferative activity with or without MDR inhibitor (MTT/XTT viability); type: cell-based, mouse; conditions: IC50 Dox / IC50 Dox + Inhibitor
Description: To assay the ability of the compounds according to this invention to increase the antiproliferative activity of a drug, cell lines which are known to be resistant to a particular drug may be used. These cell lines include, but are not limited to, the L1210, P388D, CHO and MCF7 cell lines. Alternatively, resistant cell lines may be developed. The cell line is exposed to the drug to which it is resistant, or to the test compound; cell viability is then measured and compared to the viability of cells which are exposed to the drug in the presence of the test compound. […]
Multi-drug resistance assays were conducted by plating cells (2 x 10^3, 1 x 10^4, or 5 x 10^4 cells/well) in 96 well microtiter plates and exposing them to a concentration range of doxorubicin ([…]) as described in Ford et al., Cancer Res., Vol. 50, 1748-1756. […] After culture for 3 days, the viability of cells was quantitated using MTT (Mossman) or XTT dyes to assess mitochondrial function. […]
Results were determined by comparison of the IC50 for doxorubicin alone to the IC50 for doxorubicin+ MDR inhibitor. An MDR ratio was calculated (IC50 Dox/ IC50 Dox + Inhibitor) and the integer value used for comparison of compound potencies.

Compound | pIC50 (HL60/ADR cells) | MDR Ratio 0.5 µM (L1210VMDRC.06; 0.5 µM compound) | MDR Ratio 1.0 µM (L1210VMDRC.06; 1.0 µM compound)
COc1cccc2c1C(=O)c1c(O)c3c(c(O)c1C2=O)C[C@@](O)(C(=O)CO)C[C@@H]3O[C@H]1C[C@H](N)[C@H](O)[C@H](C)O1 [Dox, doxorubicin] | 5.30 | – | –
(S)-N-Benzyl-2-(methyl-(2-oxo-2-(3,4,5-trimethoxyphenyl)acetyl)amino)-3-phenyl-N-(3-(pyridin-4-yl)-1-(2-(pyridin-4-yl)-propyl)butyl)propionamide [Compound 12] | – | 3.2 | >9.2
